Laboratory results reported in US8710233B2 (Gruenenthal GmbH, priority 2005, dated 2014).
Read-outs that look alike come from different tables or passages of the source.

Legend:
vanilloid receptor (VR1) [1] = molecular target: T1, vanilloid receptor (VR1) (Homo sapiens, UniProt Q8NER1); experiment: FLIPR Ca2+ influx assay on CHO K1 cells transfected with the VR1 gene (pharmacological method II); assay type: cell-based; conditions: CHO-K1, read-out: inhibition in percent, Ki (human) Cap.
T1 construct: expressed in transfected cells; host or cells: CHO K1 cells (ECACC), stably transfected
T1 sequence (Q8NER1 whole entry): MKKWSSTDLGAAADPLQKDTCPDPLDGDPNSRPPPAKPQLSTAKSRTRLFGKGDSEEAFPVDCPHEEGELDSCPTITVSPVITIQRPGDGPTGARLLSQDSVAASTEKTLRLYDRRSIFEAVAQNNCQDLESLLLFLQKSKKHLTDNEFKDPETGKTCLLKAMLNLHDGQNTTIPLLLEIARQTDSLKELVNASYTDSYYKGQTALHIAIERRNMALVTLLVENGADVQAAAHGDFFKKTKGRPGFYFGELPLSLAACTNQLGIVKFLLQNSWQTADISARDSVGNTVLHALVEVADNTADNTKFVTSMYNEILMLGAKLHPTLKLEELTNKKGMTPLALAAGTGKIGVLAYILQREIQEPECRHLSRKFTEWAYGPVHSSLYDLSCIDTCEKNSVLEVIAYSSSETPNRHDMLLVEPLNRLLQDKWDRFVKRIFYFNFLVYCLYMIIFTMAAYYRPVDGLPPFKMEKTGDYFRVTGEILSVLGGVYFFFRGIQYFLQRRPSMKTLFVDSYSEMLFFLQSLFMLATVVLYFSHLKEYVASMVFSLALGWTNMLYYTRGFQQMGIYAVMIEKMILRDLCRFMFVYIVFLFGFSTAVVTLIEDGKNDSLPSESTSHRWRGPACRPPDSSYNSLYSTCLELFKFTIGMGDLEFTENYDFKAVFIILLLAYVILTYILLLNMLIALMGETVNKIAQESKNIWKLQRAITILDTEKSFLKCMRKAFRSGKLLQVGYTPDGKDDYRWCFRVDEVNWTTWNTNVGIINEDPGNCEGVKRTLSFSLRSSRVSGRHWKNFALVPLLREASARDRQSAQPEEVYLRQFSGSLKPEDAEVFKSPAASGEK

VR1/TRPV1 receptor = VR1/TRPV1 receptor (Homo sapiens, UniProt Q8NER1); experiment: IC50 (human) after pH stimulus; assay type: cell-based; conditions: for IC50: table 4
Chain of VR1/TRPV1 receptor (Q8NER1 whole entry): as above

[2] = molecular target: T2, vanilloid receptor 1 (VR1/TRPV1) of the rat species (Rattus norvegicus, UniProt O35433); experiment: FLIPR Ca2+ influx assay on rat dorsal root ganglia cells (pharmacological method I); assay type: cell-based; conditions: table 4; capsaicin; read-out: Ki (rat) Cap.
T2 construct: The spinal column is removed from decapitated rats; from tissue; host or cells: primary cells dissociated from rat dorsal root ganglia
T2 sequence (O35433 whole entry): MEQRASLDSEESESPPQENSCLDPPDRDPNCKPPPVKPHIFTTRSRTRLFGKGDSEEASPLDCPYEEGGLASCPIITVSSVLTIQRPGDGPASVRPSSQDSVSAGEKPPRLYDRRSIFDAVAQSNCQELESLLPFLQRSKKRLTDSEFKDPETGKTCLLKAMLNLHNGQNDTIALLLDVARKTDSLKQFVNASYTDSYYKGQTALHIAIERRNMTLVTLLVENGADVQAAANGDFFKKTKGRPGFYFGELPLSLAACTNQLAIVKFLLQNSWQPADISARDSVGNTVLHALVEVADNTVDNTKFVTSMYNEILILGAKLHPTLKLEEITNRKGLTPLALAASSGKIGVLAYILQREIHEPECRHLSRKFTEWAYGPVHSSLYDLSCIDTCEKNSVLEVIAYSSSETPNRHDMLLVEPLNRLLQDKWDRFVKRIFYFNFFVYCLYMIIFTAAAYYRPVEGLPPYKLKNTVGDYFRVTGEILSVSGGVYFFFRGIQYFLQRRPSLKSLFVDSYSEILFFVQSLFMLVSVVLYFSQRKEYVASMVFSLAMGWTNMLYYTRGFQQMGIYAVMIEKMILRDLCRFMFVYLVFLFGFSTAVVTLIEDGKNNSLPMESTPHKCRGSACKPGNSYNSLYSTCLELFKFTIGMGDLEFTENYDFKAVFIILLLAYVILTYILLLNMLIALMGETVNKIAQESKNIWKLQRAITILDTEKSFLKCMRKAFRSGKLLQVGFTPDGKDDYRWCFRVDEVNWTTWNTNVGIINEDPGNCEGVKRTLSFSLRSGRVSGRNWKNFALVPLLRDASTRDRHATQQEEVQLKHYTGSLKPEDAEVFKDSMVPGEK
Summary of the method: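 Primary rat dorsal root ganglion cells loaded with 2 μM Fluo-4, Ca2+ influx read on FLIPR as peak fluorescence. Triplicates, at least 3 independent experiments.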

[3] = tested on: capsaicin induced hypothermie; experiment: Hypothermie assay in the mouse (capsaicin induced hypothermie); assay type: in vivo
[4] = tested on: formaldehyde induced nociceptive behaviour; experiment: Formaldehyde test in mice, second (late) phase; assay type: in vivo, mouse; conditions: mouse; for inhibition in vivo at 0.1 mg/kg: 0.1 mg/kg body weight po; for inhibition in vivo at 0.1 mg/kg / inhibition in vivo at 0.3 mg/kg: read-out: inhibition formaldehyde test (n = 10)
vanilloid receptor (VR1) [5] = molecular target: T1, vanilloid receptor (VR1); experiment: FLIPR Ca2+ influx assay on CHO K1 cells transfected with the VR1 gene (pharmacological method II); assay type: cell-based; conditions: table 4; capsaicin; read-out: Ki (human) Cap.
[6] = 0.3 mg/kg body weight po, mouse, read-out: inhibition hypothermie (n = 5)

Row | Ki [2] [nM] | Ki (vanilloid receptor (VR1) [5]) [nM] | IC50 (VR1/TRPV1 receptor) [nM] | Structure (SMILES) | inhibition in vivo at 0.3 mg/kg [3, 6] [%] | inhibition in vivo at 0.3 mg/kg ([4]; 0.3 mg/kg body weight po) [%] | also measured
1 |  |  |  | CC1CCN(c2nc(C(F)(F)F)ccc2CNC(=O)C(C)c2ccc(NS(=O)(=O)C(F)(F)F)c(F)c2)CC1 (stereo not drawn) [Example 312, 2-(3-fluoro-4-trifluoromethylsulfonamido-phenyl)-N-(4-methyl-6′-trifluoromethyl-3,4,5,6-tetrahydro-2H-[1,2′]bipyridinyl-3′-ylmethyl)-propionamide] |  |  | inhibition at 5 µM (vanilloid receptor (VR1) [1]; @ 5 μM): 68%; inhibition in percent, IC50 (human) after pH stimulus (VR1/TRPV1 receptor; @ 1 μM, ne = no effect): ne @ 1 μM
2 | 2.8 | 0.8 | 21.3 | CCCCN(C)c1nc(C(F)(F)F)ccc1CNC(=O)C(C)c1ccc(NS(C)(=O)=O)c(F)c1 (stereo not drawn) [Example 167, N-[2-(butyl-methyl-amino)-6-trifluoromethyl-pyridin-3-ylmethyl]-2-(3-fluoro-4-methylsulfonamido-phenyl)-propionamide] | 19 |  | inhibition in vivo at 0.1 mg/kg [4]: 62%
3 | 1.1 | 0.5 | 18.5 | CC(C(=O)NCc1ccc(C(F)(F)Cl)nc1OC1CCCC1)c1ccc(NS(C)(=O)=O)c(F)c1 (stereo not drawn) [Example 166, N-[6-(chloro-difluoro-methyl)-2-cyclopentyloxy-pyridin-3-ylmethyl]-2-(3-fluoro-4-methylsulfonamido-phenyl)-propionamide] | 28 | 48 | 
4 | 5 | 0.3 | 57.1 | CC(C(=O)NCc1ccc(C(F)(F)F)nc1-c1cccs1)c1ccc(NS(C)(=O)=O)c(F)c1 (stereo not drawn) [Example 88, 2-(3-fluoro-4-methylsulfonamido-phenyl)-N-((6-(trflluoromethyl)-2-(thiophen-2-yl)pyridin-3-yl)methyl)-propionamide] | 38 | 4 | 
5 | 0.7 | 0.9 | 16.2 | CC1CCN(c2cc(C(F)(F)F)ccc2CNC(=O)C(C)c2ccc(NS(C)(=O)=O)c(F)c2)CC1 (stereo not drawn) [Example 82, 2-(3-Fluor-4-(methylsulfonamido)phenyl)-N-(2-(4-methylpiperidin-1-yl)-4-(trifluoromethyl)benzyl)propanamide] |  |  | inhibition hypothermie (n = 5) ([3]; 0.3 mg/kg body weight po, mouse): 0.3 po 53%; inhibition formaldehyde test (n = 10) ([4]; 0.3 mg/kg body weight po): 0.3 po 39%
6 | 1 | 1.1 | 23.1 | CC(C(=O)NCc1ccc(C(F)(F)F)nc1N1CCN(c2ccc(F)cc2)CC1)c1ccc(NS(C)(=O)=O)c(F)c1 (stereo not drawn) [Example 179, 2-(3-fluoro-4-methylsulfonamido-phenyl)-N-{2-[4-(4-fluoro-phenyl)-piperazin-1-yl]-6-trifluoromethyl-pyridin-3-ylmethyl}-propionamide] | 57 | 5 | 
7 | 1.1 | 1.3 | 63.6 | CC(C(=O)NCc1ccc(C(F)(F)F)nc1-c1cccc(F)c1)c1ccc(NS(C)(=O)=O)c(F)c1 (stereo not drawn) [Example 148, 2-(3-fluoro-4-methylsulfonamido-phenyl)-N-[2-(3-fluoro-phenyl)-6-trifluoromethyl-pyridin-3-ylmethyl]-propionamide] | 45 | 44 | 
8 | 1.1 | 2.8 | 36.5 | CC(C(=O)NCc1ccc(C(F)(F)F)cc1N1CCCCCCC1)c1ccc(NS(C)(=O)=O)c(F)c1 (stereo not drawn) [Example 217, N-(2-azocan-1-yl-4-trifluoromethyl-benzyl)-2-(3-fluoro-4-methylsulfonamido-phenyl)-propionamide] |  | 9 | inhibition in vivo at 0.1 mg/kg ([3]; 0.1 mg/kg body weight po, mouse, read-out: inhibition hypothermie (n = 5)): 40%
9 |  |  |  | CC(C(=O)NCc1c(CO)cc(C(C)(C)C)nc1OCc1ccccc1)c1ccc(NS(C)(=O)=O)c(F)c1 (stereo not drawn) [Compound 223] |  |  | inhibition at 0.1 µM (vanilloid receptor (VR1) [1]; @ 0.1 μM): 4%
10 | 1.2 | 0.9 | 101 | CC(C(=O)NCc1ccc(C(F)(F)F)nc1SC1CCCCC1)c1ccc(NS(C)(=O)=O)c(F)c1 (stereo not drawn) [Example 126] | 0 |  | inhibition in vivo at 0.1 mg/kg [4]: 20%
11 | 1.6 | 1.8 | 77.2 | CC(C(=S)NCc1ccc(C(F)(F)F)nc1N1CCCC1)c1ccc(NS(C)(=O)=O)c(F)c1 (stereo not drawn) [Example 129, 2-(3-fluoro-4-methylsulfonamido-phenyl)-N-(2-pyrrolidin-1-yl-6-trifluoromethyl-pyridin-3-ylmethyl)-thiopropionamide] | 10 | 5 | 
12 |  |  |  | CC(C(=O)NCc1ccc(C(F)(F)F)nc1N1CCS(=O)(=O)CC1)c1ccc(NS(C)(=O)=O)c(F)c1 (stereo not drawn) [Compound 314] |  |  | inhibition at 1 µM (vanilloid receptor (VR1) [1]; @ 1 μM, ne = no effect): 12%

Row | Structure (SMILES) | Ki [2] [nM] | Ki (vanilloid receptor (VR1) [5]) [nM] | IC50 (VR1/TRPV1 receptor) [nM] | inhibition in vivo at 0.3 mg/kg [3, 6] [%] | inhibition in vivo at 0.3 mg/kg ([4]; 0.3 mg/kg body weight po) [%] | also measured
13 | CC1CCN(c2nc(C(F)(F)F)ccc2CNC(=O)C(C)c2ccc(NS(C)(=O)=O)c(F)c2)CC1 (stereo not drawn) [Example 80, 2-(3-fluoro-4-methylsulfonamido-phenyl)-N-(2-4-methylpiperidin-1-yl-6-trifluoromethyl-pyridin-3-ylmethyl)-propionamide] | 0.6 | 0.3 | 5.4 |  | 58 | inhibition in vivo at 0.3 mg/kg ([3]; Mus musculus, po, read-out: inhibition hypothermie (n = 5)): 66%
